From US4780467A, “Esters of N-alkyl-nortropines and their quaternary derivatives having anti-bronchospastic activity, and pharmaceutical compositions containing them” (Laboratori Guidotti Spa, priority 1986, dated 1988) come the findings set out here.

Series [1] concerns isolated trachea of guinea pig. Kind of series: relaxation of isolated trachea of guinea pig precontracted with methacoline. Conditions: Cavia porcellus, read-out: IC50, relaxing the contraction of the isolated trachea of guinea pig precontracted with methacoline. From the text:
The compounds of the invention have been pharmacologically studied by means of in vitro and in vivo tests, suitable to evidence the anti-bronchospastic properties of the compounds. […] To this action a remarkable anti-bronchospastic action in the tests in vivo corresponded after administration by i.v. and inhalatory route.

Series [2] deals with bronchospasm induced by acetyl choline aerosol in guinea pig. Kind of series: inhibition of bronchospasm induced by acetyl choline aerosol in awake guinea pig. The settings on record: for ED50: Cavia porcellus, iv; for ED50, inhibition of bronchospasm induced by acetyl choline aerosol: i.v. It counts as in vivo.
The test system of series [3] is PAF-acether induced bronchospasm in guinea pig. Kind of series: inhibition of PAF-acether induced bronchospasm in anestetized guinea pig. The format is in vivo. The settings on record: for inhibition of PAF-acether induced bronchospasm (in words): up to 3 μmol/kg; for inhibition % of PAF-acether induced bronchospasm: guinea pig, i.v.
Series [4] in a line: acute toxicity in the mouse. Conditions: in vivo; for LD50: approximate value; for selectivity ratio: ratio os/i.p., read-out: LD50 os/i.p.
Series [5] concerns platelet aggregation (rabbit prp) from PAF acether. Kind of series: platelet aggregation (rabbit prp) from PAF-acether. The settings on record: Oryctolagus cuniculus. The format is cell-based.
Series [6] has as its system platelet aggregation (rabbit prp) from collagen. Put plainly: platelet aggregation (rabbit prp) from collagen. It counts as cell-based. The settings on record: Oryctolagus cuniculus.
Series [7] concerns platelet aggregation (rabbit prp) from arachidonic acid. Kind of series: platelet aggregation (rabbit prp) from arachidonic acid. It counts as cell-based. Conditions: Oryctolagus cuniculus.
The mark [8] stands for this setting: ip, read-out: approximate value of LD50, i.p.
[9] abbreviates: po, os, read-out: approximate value of LD50, os.

Where two headings read alike, the source gives them in different places. Bounds are passed on as bounds.

As for `CN1[C@@H]2CC[C@H]1C[C@@H](OC(=O)C(CO)c1ccccc1)C2` (stereo partly drawn) [Atropine sulphate, atropine sulphate, reference compound], the half-maximal inhibitory concentration (IC50) in series [1] is 6.9 nM. For the same compound, in series [2], the 50% effect level (ED50) was put at a dose of 0.068 µmol/kg and the “ED50, inhibition of bronchospasm induced by acetyl choline aerosol” value (“ED50, inhibition of bronchospasm induced” for short) turned out to be 68 nmol/kg. Besides, the “inhibition of PAF-acether induced bronchospasm (in words)” value in series [3] (anestetized guinea pig) is “fully inactive”. Further, the “inhibition % of PAF-acether induced bronchospasm” value (“inhibition %” for short) in series [3] (3 μmol kg^-1) is recorded as 0%.

Take `CCCN1[C@@H]2CC[C@H]1C[C@@H](OC(=O)C1CCCC=C1c1ccccc1)C2` (stereo partly drawn) [Example 5, Endo-3-(2-phenyl-2-cyclohexen-1-carbonyloxy)-8-sin-propyl-8-azabicyclo-[3.2.1.]-octane]: the concentration for half-maximal inhibition (IC50) in series [1] is 1700 nM. The ED50 in series [2] was more than 7.7 µmol/kg.

On to `CN1[C@@H]2CC[C@H]1C[C@@H](OC(=O)CC1=C(c3ccccc3)CCCC1)C2` [Example 6, Endo-3-(2-phenyl-1-cyclohexen-1-acetoxy)-8-sin-methyl-8-azabicyclo-[3.2.1.]-octane], for which the IC50 in series [1] came to 4200 nM. The compound also gave an ED50 in series [2] of approximately 15 µmol/kg.

Regarding `CC(C)N1[C@@H]2CC[C@H]1C[C@@H](OC(=O)CC1=C(c3ccccc3)CCCC1)C2` [Example 7, Endo-3-(2-phenyl-1-cyclohexen-1-acetoxy)-8-sin-isoproyl-8-azabicyclo-[3.2.1.]-octane], the IC50 in series [1] worked out at 30000 nM. The same compound registered a median effective dose (ED50) in series [2] of more than 7.4 µmol/kg.

As for `C[N+]1(C)[C@@H]2CC[C@H]1C[C@@H](OC(=O)CC1=C(c3ccccc3)CCCC1)C2` [Example 8, Endo-3-(2-phenyl-1-cyclohexen-1-acetoxy)-8,8-dimethyl-8-azoniabicyclo-[3.2.1.]-octane iodide], in series [1], the IC50 turned out to be 1.1 nM. Further, the figures for the LD50 in series [4] (setting [8]) and in series [4] (setting [9]) were 45 mg/kg and 800 mg/kg, respectively. In series [4] (ip), the selectivity ratio was found to be 18.

Turning to `CC[N+]1(C)[C@@H]2CC[C@H]1C[C@@H](OC(=O)CC1=C(c3ccccc3)CCCC1)C2` (stereo partly drawn) [Example 9, Endo-3-(2-phenyl-1-cyclohexen-1-acetoxy)-8-sin-methyl-8-ethyl-8-azoniabicyclo-[3.2.1.]-octane iodide], in series [1], the IC50 is 32 nM. For the same compound, the ED50 in series [2] was approximately 0.4 µmol/kg.

`CC(C)[N+]1(C)[C@@H]2CC[C@H]1C[C@@H](OC(=O)C1CCCC=C1c1ccccc1)C2` (stereo partly drawn) [Example 13, Endo-3-(2-phenyl-2-cyclohexen-1-carbonyloxy)-8-sin-isopropyl-8-methyl-8-azoniabicyclo-[3.2.1.]-octane iodide]: the IC50 is 0.67 nM in series [1], 39.1 µM in series [5], more than 100 µM in series [6] and more than 100 µM in series [7]. The figures for the 50% lethal dose (LD50) in series [4] (setting [8]) and in series [4] (setting [9]) were 123 mg/kg and 500 mg/kg, respectively. Also, the selectivity ratio in series [4] (ip) was found to be 4.1. The “inhibition %” value worked out at 0% in series [3] (0.3 μmol kg^-1) and 28 ± 13% in series [3] (3 μmol kg^-1).

Take `CC[N+]1(C(C)C)[C@@H]2CC[C@H]1C[C@@H](OC(=O)C1CCCC=C1c1ccccc1)C2` (stereo partly drawn) [Example 14, Endo-3-(2-phenyl-2-cyclohexen-1-carbonyloxy)-8-sin-isopropyl-8-ethyl-8-azoniabicylo-[3.2.1.]-octane iodide]: the 50% lethal dose (LD50) in series [4] (setting [8]) was 91 mg/kg; in series [4] (setting [9]) it was 300 mg/kg. Besides, in series [4] (ip), the selectivity ratio was 3.3. Moreover, the concentration for half-maximal inhibition (IC50) in series [5] is 29.9 µM; in series [6], more than 100 µM; in series [7] it was more than 100 µM. Besides, the “ED50, inhibition of bronchospasm induced” value in series [2] (listed as 1st formula, 2nd R, R'=CH2CH3) turned out to be 22 nmol/kg. Also, the “inhibition %” value in series [3] (0.3 μmol kg^-1) stood at 0%; in series [3] (3 μmol kg^-1), 42 ± 14%.

As for `CC[N+]1(C)[C@@H]2CC[C@H]1C[C@@H](OC(=O)C1CCCC=C1c1ccccc1)C2` (stereo partly drawn) [Example 20, Endo-3-(2-phenyl-2-cyclohexen-1-carbonyloxy)-8-sin-ethyl-8-methyl-8-azoniabicyclo-[3.2.1.]-octane iodide], the 50% inhibitory concentration (IC50) is 0.95 nM in series [1], 7.7 µM in series [5], more than 100 µM in series [6] and more than 100 µM in series [7]. The median lethal dose (LD50) in series [4] (setting [8]) was found to be 126 mg/kg; in series [4] (setting [9]) it was 350 mg/kg. Also, in series [4] (ip), the selectivity ratio came to 2.8. For the same compound, the figures for the “inhibition %” value in series [3] (0.3 μmol kg^-1) and in series [3] (3 μmol kg^-1) were 3 ± 11% and 36 ± 17%, respectively.

For `CC[N+]1(CC)[C@@H]2CC[C@H]1C[C@@H](OC(=O)C1CCCC=C1c1ccccc1)C2` (stereo partly drawn) [Example 21, Endo-3-(2-phenyl-2-cyclohexene-1-carbonyloxy)-8,8-di-ethyl-azoniabicyclo-[3.2.1.]-octane iodide], the concentration for half-maximal inhibition (IC50) in series [1] is 0.03 nM; in series [5], 2.4 µM; in series [6], more than 100 µM; in series [7] it was more than 100 µM. For the same compound, the LD50 is 107 mg/kg in series [4] (setting [8]) and 800 mg/kg in series [4] (setting [9]). In addition, the selectivity ratio in series [4] (ip) was 7.5. Moreover, the ED50 in series [2] amounted to 0.029 µmol/kg; in series [3] (Cavia porcellus, anestetized guinea pig) it was 0.8 µmol/kg. Further, the “inhibition %” value worked out at 43 ± 16% in series [3] (0.3 μmol kg^-1) and 64 ± 16% in series [3] (3 μmol kg^-1).

Consider `CCC[N+]1(C)[C@@H]2CC[C@H]1C[C@@H](OC(=O)C1CCCC=C1c1ccccc1)C2` (stereo partly drawn) [Example 25, Endo-3-(2-phenyl-2-cyclohexen-1-carbonyloxy)-8-sin-propyl-8-methyl-8-azoniabicyclo-[3.2.1.]-octane iodide], for which the half-maximal inhibitory concentration (IC50) in series [1] was determined as 3.3 nM. Moreover, the results for the 50% lethal dose (LD50) in series [4] (setting [8]) and in series [4] (setting [9]) were 124 mg/kg and 600 mg/kg, respectively. In series [4] (ip), the selectivity ratio worked out at 4.8.

Take `CC[N+]1(C(C)C)[C@@H]2CC[C@H]1C[C@@H](OC(=O)CC1=C(c3ccccc3)CCCC1)C2` (stereo partly drawn) [Example 32, Endo-3-(2-phenyl-1-cyclohexen-1-acetoxy)-8-sin-isopropyl-8-ethyl-8-azoniabicyclo-[3.2.1.]-octane iodide]: in series [1], the IC50 was 9000 nM. In series [2], this compound came in with a 50% effective dose (ED50) of more than 5.7 µmol/kg.

For `CC(C)[N+]1(C)[C@@H]2CC[C@H]1C[C@@H](OC(=O)C(CO)c1ccccc1)C2` (stereo partly drawn) [ipratropium bromide, reference compound], the IC50 in series [1] came out at 2 nM. Besides, in series [2], it took a dose of 0.012 µmol/kg to reach the 50% effect level (ED50) and the “ED50, inhibition of bronchospasm induced” value is 12 nmol/kg. In addition, the “inhibition of PAF-acether induced bronchospasm (in words)” value in series [3] (anestetized guinea pig) is “fully inactive”. Also, the “inhibition %” value in series [3] (3 μmol kg^-1) came out at 7 ± 10%.
